Results: US8178658B2 (Dow AgroSciences, LLC, priority 2008, dated 2012)

Assays:
[1] = tested on: beet armyworm (BAW; Spodoptera exigua: Lepidoptera); assay: 96-well microtiter plate-based high throughput (HTS) diet bioassay on beet armyworm (BAW HTS); assay type: in vivo; conditions: for BAW HTS: BAW eggs, 12 μg test compound per well, mortality at 6 d post-treatment, mortality class; for pest or weed control at 12 µg/well, 12 µg/well: Spodoptera exigua, 144 h, read-out: BAW HTS
In short: (§1)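 HTS: eggs on diet topped with 12 μg cpd/well; dark, 29° C; mortality day 6; mean of 6 reps. Tray: 3–5 L2 larvae/well; diet dosed 50 μg/cm^2; 25° C, 14:10 L:D; 6 d; mean of 8 wells. Scored as ≥50% mortality or not.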

[2] = tested on: beet armyworm (BAW; Spodoptera exigua: Lepidoptera); assay: 128-well diet tray assay on beet armyworm (BAW 50); assay type: in vivo
In short: as §1

[3] = 96-well microtiter plate HTS diet assay
[4] = 128-well diet tray assay; 50 μg/cm^2 of test compound on diet; second instar BAW larvae; mortality class
[5] = Spodoptera exigua, 144 h, read-out: BAW 50 ug/cm2

| SMILES | BAW HTS ([1]; 96-well HTS diet bioassay) | BAW HTS [1, 3] | BAW 50 ug/cm2 [2, 4] | pest or weed control at 12 µg/well, 12 µg/well [1] [%] | pest or weed control at 50 µg/cm2, 50 µg/cm2 [2, 5] [%] | BAW HTS ([1]; 96-well HTS diet assay) | BAW 50 ug/cm2 ([2]; 128-well diet tray assay, second instar BAW larvae, 50 μg/cm^2 of test compound on diet; mortality class) |
| --- | --- | --- | --- | --- | --- | --- | --- |
| COC1C(C)OC(ON=Cc2ccc(-c3nn(-c4ccc(F)cc4F)c(=O)[nH]3)cc2)C(OC)C1OC (centres unmarked) [Compound 100] | B (either (1) the compound was tested and less than 50 percent mortality was observed or (2) the compound was not tested) | B (either (1) the compound was tested and less than 50 percent mortality was observed or (2) the compound was not tested) | A (the compound was tested and at least 50 percent mortality was observed) |  |  |  |  |
| CO[C@@H]1[C@@H](OC)[C@H](C)O[C@@H](OC(=O)Nc2ccc(-c3ccnc(-c4ccc(C(F)(F)F)cc4)n3)cc2)[C@@H]1OC [Compound 232, {4-[2-(4-trifluoromethylphenyl)-pyrimidin-4-yl]-phenyl}-carbamic acid (2S,3R,4R,5S,6S)-3,4,5-trimethoxy-6-methyl-tetrahydropyran-2-yl ester] |  | A (the compound was tested and at least 50 percent mortality was observed) | A (the compound was tested and at least 50 percent mortality was observed) | > 50 | > 50 |  |  |
| CCO[C@@H]1[C@@H](OC)[C@H](C)O[C@H](OC(=O)Nc2ccc(C3CC(c4ccc(OC(F)(F)F)cc4)=NO3)cc2)[C@@H]1OC (some centres unmarked) [Compound 184] |  | B (either (1) the compound was tested and less than 50 percent mortality was observed or (2) the compound was not tested) | B (either (1) the compound was tested and less than 50 percent mortality was observed or (2) the compound was not tested) |  |  | B (either (1) the compound was tested and less than 50 percent mortality was observed or (2) the compound was not tested) |  |
| CCO[C@@H]1[C@@H](OC)[C@H](C)O[C@@H](OC(=S)Nc2ccc(-c3ncn(-c4ccc(OC(F)(F)C(F)(F)F)cc4)n3)cc2)[C@@H]1OC [Compound 203, {4-[1-(4-pentafluoroethyloxy-phenyl)-1H-[1,2,4]triazol-3-yl]-phenyl}-thiocarbamic acid (2S,3R,4R,5S,6S)-4-ethoxy-3,5-dimethoxy-6-methyl-tetrahydropyran-2-yl ester] |  | A (the compound was tested and at least 50 percent mortality was observed) | A (the compound was tested and at least 50 percent mortality was observed) | > 50 | > 50 |  |  |
| COC1C(C)OC(ON=Cc2ccc(-c3ccn(-c4ccc(C(C)C)cc4)n3)cc2)C(OC)C1OC (centres unmarked) [Compound 10] | B (either (1) the compound was tested and less than 50 percent mortality was observed or (2) the compound was not tested) | B (either (1) the compound was tested and less than 50 percent mortality was observed or (2) the compound was not tested) | A (the compound was tested and at least 50 percent mortality was observed) |  |  |  |  |
| CCOC1C(C)OC(ON=Cc2ccc(-c3cn(-c4ccc(C(F)(F)F)cn4)cn3)cc2)C(OCC)C1OCC (centres unmarked) [Compound 33] | A (the compound was tested and at least 50 percent mortality was observed) | A (the compound was tested and at least 50 percent mortality was observed) | A (the compound was tested and at least 50 percent mortality was observed) |  |  |  |  |
| CCOC1C(OC)C(C)OC(ON=Cc2ccc(-c3ncn(-c4ccc(C#N)cc4)n3)cc2)C1OC (centres unmarked) [Compound 126] | B (either (1) the compound was tested and less than 50 percent mortality was observed or (2) the compound was not tested) | B (either (1) the compound was tested and less than 50 percent mortality was observed or (2) the compound was not tested) | A (the compound was tested and at least 50 percent mortality was observed) |  |  |  |  |
| CCO[C@@H]1[C@@H](OC)[C@H](C)O[C@@H](OC(=O)Nc2ccc(-c3nncc(-c4ccc(OC(F)(F)F)cc4)n3)cc2)[C@@H]1OC [Compound 237] |  | B (either (1) the compound was tested and less than 50 percent mortality was observed or (2) the compound was not tested) | A (the compound was tested and at least 50 percent mortality was observed) |  |  | B (either (1) the compound was tested and less than 50 percent mortality was observed or (2) the compound was not tested) |  |
| COC1C(C)OC(ON=Cc2ccc(-n3ccc(-c4ccccn4)n3)cc2)C(OC)C1OC (centres unmarked) [Compound 3] | A (the compound was tested and at least 50 percent mortality was observed) |  |  |  |  | A (the compound was tested and at least 50 percent mortality was observed) | B (either (1) the compound was tested and less than 50 percent mortality was observed or (2) the compound was not tested) |
| CO[C@@H]1[C@@H](OC)[C@H](C)O[C@@H](OC(=O)Nc2ccc(-n3cnc(-c4ccc(C(F)(F)F)cc4)n3)cc2)[C@@H]1OC [Compound 229] |  | A (the compound was tested and at least 50 percent mortality was observed) | A (the compound was tested and at least 50 percent mortality was observed) |  |  | A (the compound was tested and at least 50 percent mortality was observed) |  |
| COC1C(C)OC(ON=Cc2ccc(-c3cn(-c4ccc(C(F)(F)F)cn4)cn3)cc2)C(OC)C1OC (centres unmarked) [Compound 32] | A (the compound was tested and at least 50 percent mortality was observed) | A (the compound was tested and at least 50 percent mortality was observed) | A (the compound was tested and at least 50 percent mortality was observed) |  |  |  |  |
| CCCO[C@@H]1[C@@H](OC)[C@H](C)O[C@@H](OC(=O)Nc2ccc(-c3ncn(-c4ccc(OC(F)(F)F)cc4)n3)cc2)[C@@H]1OC [Compound 209] |  | A (the compound was tested and at least 50 percent mortality was observed) | A (the compound was tested and at least 50 percent mortality was observed) |  |  | A (the compound was tested and at least 50 percent mortality was observed) |  |
| COCC1OC(ON=Cc2ccc(-c3ncn(-c4ccc(OC(F)(F)C(F)(F)F)cc4)n3)cc2)C(OC)C(OC)C1OC (centres unmarked) [Compound 119] | A (the compound was tested and at least 50 percent mortality was observed) | A (the compound was tested and at least 50 percent mortality was observed) | A (the compound was tested and at least 50 percent mortality was observed) |  |  |  |  |
| CCO[C@@H]1[C@@H](OC)[C@H](C)O[C@@H](OC(=O)Nc2ccc(C3CC(c4ccc(OC(F)(F)F)cc4)=NO3)cc2)[C@@H]1OC (some centres unmarked) [Compound 183] |  | A (the compound was tested and at least 50 percent mortality was observed) | A (the compound was tested and at least 50 percent mortality was observed) |  |  | A (the compound was tested and at least 50 percent mortality was observed) |  |
| COC1C(C)OC(ON=Cc2ccc(-c3csc(-c4ccc(C(F)(F)F)nc4)n3)cc2)C(OC)C1OC (centres unmarked) [Compound 66] | A (the compound was tested and at least 50 percent mortality was observed) | A (the compound was tested and at least 50 percent mortality was observed) | A (the compound was tested and at least 50 percent mortality was observed) |  |  |  |  |
